The results in this text go back to US12391701B2, “Chromene-based compounds, methods and uses thereof” (University of Minho, priority 2019, dated 2025).

The subject of assay [1] is renal carcinoma cell line A498. Description: Cell viability (sulforhodamine B), A498. Particulars: Homo sapiens, Table 5. It counts as cell-based. How it is done:
In an embodiment, the antiproliferative activity of the compounds was further determined against renal carcinoma cell lines and non-neoplastic kidney cell line.
In an embodiment, three human breast cancer cell lines Hs578T, MDA-MB-468 and MCF-7, and a normal breast cell line MCF-10A, were obtained from ATCC (American Type Culture Collection). The cancer cell lines were cultured in Dulbecco's modified Eagle medium, 4.5 g/l glucose (DMEM, Gibco) supplemented with 10% heating inactivated Fetal Bovine Serum (FBS, Gibco) and 1% antibiotic solution (Penicillin-Streptomycin, Gibco). The normal cell line was cultured in Dulbecco's Modified Eagle Medium: Nutrient Mixture F-12 (DMEM/F12, Gibco) supplemented with 5% heating inactivated FBS (Gibco), 1% antibiotic solution (Penicillin-Streptomycin, Gibco), 1% steroid hormone (Hydrocortisone, Sigma-Aldrich), 0.1% peptide hormone (Insulin, Sigma-Aldrich) and 0.01% protein complex (Cholera Toxin, Gibco). Two distinct human acute myeloid leukemia (AML) cell lines, HL-60 (FAB M2) and KG-1 (erythroleukemia-FAB M6), and one human lymphoblastic leukemia (ALL) cell line, Jurkat (T cell type), were also used. These three cell lines were obtained from German Collection of Microorganisms and Cell cultures (DMSZ®, Deutsche Sammlung von Mikroorganismen and Zellkulturen in German). Cells were cultured in RPMI 1640 medium (Biochrom®-Merck Millipore) supplemented with 10% heating inactivated FBS (Biochrom®-Merck Millipore) and 1% antibiotic/antimitotic mixture (Invitrogen®). Three human glioblastoma (GBM) cell line models, two established and commercially available cell lines (U87MG and GAMG, kind gift from Rui M. Reis) and one primary GBM culture (GLIB) were also used. GBM cells were cultures in DMEM (Biochrom-Merck Millipore), all supplemented with 10% FBS. The Renal cell carcinoma cell lines A498, 786-O, Caki-2 and HK2 were obtained from ATCC. The cancer cell line A498 was cultured in MEM medium (Biochrom®-Merck Millipore), 786-O was cultured in RPMI 1640 medium (Biochrom®-Merck Millipore), Caki-2 was cultured in Mc Coys medium (Biochrom®-Merck Millipore) and HK2 was cultured in RPMI 1640 medium (Biochrom®-Merck Millipore). All the media were supplemented with 10% heat inactivated FBS (Biochrom®-Merck Millipore) and 1% antibiotic/antimitotic mixture (Invitrogen®). All cells were grown in a humidified incubator at 37° C. and 5% CO2. For all assays, DMSO (Dimethyl Sulfoxide, Sigma-Aldrich) controls were used.
In an embodiment, cell viability assays were performed. MCF-7, Hs578T and MCF-10A cells were plated in triplicate in 96-multiwell culture plates, at 3000 cells per mL, or 5000 cells per mL for MDA-MB-468 (100 μL/well). The cells were then allowed to adhere in complete medium, over a period of 18-20 hours. Cells were subsequently treated with 7 different concentrations (from 0.1 to 40 μM or 5 to 60 μM) of compounds or control in fresh medium. HL-60, KG-1 and Jurkat cell lines were plated in 96-multiwell culture plates at 50.000 cells/100 μL per well and treated with different concentrations (from 0.001 to 2 μM) of the compounds described (or control). Cells were plated, in triplicate, at an initial density of 2000 cells/well for GAMG, 4000 cells/well for GL18 and 6000 cells/well for U87MG, in 96-well plates, and allowed to adhere for 18-20 hours. Cells were then treated with different concentrations of the compounds (0.005 to 100 μM) or with control. A498 and 786-O cells were plated at 2000 cells per mL, Caki-2 cells were plated at 3000 cells per mL and HK2 cells were plated at 2000 cells per mL in triplicate, in 96-multiwell culture plates (100 μL/well), and allowed to adhere over a period of 18-20 hours in complete medium. The cells were then treated with 7 different concentrations (from 0.1 to 40 μM or 5 to 60 μM) of compounds or control in fresh medium. […]

Assay [2] has as its system cediranib-resistant Caki-2 cell line. The experiment in a line: Cell viability, cediranib-resistant Caki-2. It counts as cell-based. Particulars: for IC50: Homo sapiens, CAKI-2. How it is done: In an embodiment, the antiproliferative activity of compounds MC421, MC409, MC408, MC350, MC416, MC410, MC411, MC415 and MC413 was further determined against drug-resistant renal carcinoma cell lines.
In an embodiment, cell viability assays were performed. MCF-7, Hs578T and MCF-10A cells were plated in triplicate in 96-multiwell culture plates, at 3000 cells per mL, or 5000 cells per mL for MDA-MB-468 (100 μL/well). The cells were then allowed to adhere in complete medium, over a period of 18-20 hours. Cells were subsequently treated with 7 different concentrations (from 0.1 to 40 μM or 5 to 60 μM) of compounds or control in fresh medium. HL-60, KG-1 and Jurkat cell lines were plated in 96-multiwell culture plates at 50.000 cells/100 μL per well and treated with different concentrations (from 0.001 to 2 μM) of the compounds described (or control). Cells were plated, in triplicate, at an initial density of 2000 cells/well for GAMG, 4000 cells/well for GL18 and 6000 cells/well for U87MG, in 96-well plates, and allowed to adhere for 18-20 hours. Cells were then treated with different concentrations of the compounds (0.005 to 100 μM) or with control. A498 and 786-O cells were plated at 2000 cells per mL, Caki-2 cells were plated at 3000 cells per mL and HK2 cells were plated at 2000 cells per mL in triplicate, in 96-multiwell culture plates (100 μL/well), and allowed to adhere over a period of 18-20 hours in complete medium. The cells were then treated with 7 different concentrations (from 0.1 to 40 μM or 5 to 60 μM) of compounds or control in fresh medium. After 72 h of incubation, the MTS (Promega) reduction assay was performed according to manufacturer's instructions to indirectly assess the percentage of viable cells through metabolic cell viability. After 1-2 hours of incubation with MTS in a humidified atmosphere at 37° C. and 5% CO2, absorbance was measured at 490 nm. For RCC cell lines, sulforhodamine B assay was used according to manufacturer's instructions. The data was log-transformed and the concentration of each compound that decreased the number of viable cells to 50% (IC50) relative to control was calculated using the GraphPad Prism 6 software.

`COc1cccc2c1Oc1nc(-c3ccccc3)[nH]c1C2` [MC350, 5-methoxy-2-phenyl-3,9-dihydrochromeno[2,3-d]imidazoles]: it took 830 nM to reach half-maximal inhibition in assay [1] (IC50). Further, in assay [2], the “Selectivity Index (vs HK2) Caki-2 Resistant” value (from here on “Selectivity Index”) turned out to be 32.28 and the IC50 stood at 0.646 µM.

Consider `COc1cccc2c1Oc1nc(-c3ccc(F)cc3)[nH]c1C2C1c2cccc(OC)c2Oc2nc(-c3ccc(F)cc3)[nH]c21` (centres unmarked) [MC406, 2,2′-bis(4-fluorophenyl)-5,5′-dimethoxy-1,1,9,9′-tetrahydro-9,9′-bichromeno[2,3-]imidazoles], for which, in assay [1], the IC50 is 1160 nM. This counts as single-digit micromolar.

For `COc1cccc2c1Oc1nc(-c3ccccc3F)[nH]c1C2` [MC407, 2-(2-fluorophenyl)-5-methoxy-3,9-dihydrochromeno[2,3-d]imidazoles], the IC50 in assay [1] was found to be 1360 nM.

For `COc1cccc2c1Oc1nc(-c3ccc(Br)cc3)[nH]c1C2` [MC408, 2-(4-bromophenyl)-5-methoxy-3,9-dihydrochromeno[2,3-d]imidazoles], the IC50 in assay [1] came out at 140 nM; in assay [2] it was 0.028 µM. In addition, the “Selectivity Index” value in assay [2] is recorded as 123.79.

As to `COc1cccc2c1Oc1nc(-c3ccc(F)cc3)[nH]c1C2` [MC409, 2-(4-fluorophenyl)-5-methoxy-3,9-dihydrochromeno[2,3-d]imidazoles], the IC50 in assay [1] was 560 nM. Also, in assay [2], the “Selectivity Index” value amounted to 9.56 and the IC50 amounted to 0.33 µM.

Consider `COc1cccc2c1Oc1nc(-c3cc(F)cc(F)c3O)[nH]c1C2` [MC410, 2,4-difluoro-6-(5-methoxy-3,9-dihydrochromeno[2,3-d]imidazol-2-yl)phenol], for which, in assay [2], the “Selectivity Index” value was 2.60 and the IC50 turned out to be 6.41 µM.

In the case of `COc1ccccc1-c1nc2c([nH]1)Cc1cccc(OC)c1O2` [MC411, 5-methoxy-2-(2-methoxyphenyl)-3,9-dihydrochromeno[2,3-]imidazoles], in assay [2], the “Selectivity Index” value amounted to 1.92 and inhibition was half-maximal at 1.62 µM (IC50).

The compound `COc1cccc2c1Oc1nc(-c3ccc(O)cc3)[nH]c1C2` [MC413, 4-(5-methoxy-3,9-dihydrochromeno[2,3-d]imidazol-2-yl)phenol] gave an IC50 in assay [1] of 960 nM. In assay [2], the “Selectivity Index” value is 29.6 and 0.335 µM corresponded to half-maximal inhibition (IC50).

In assay [1], `CCOc1ccc(-c2nc3c([nH]2)Cc2cccc(OC)c2O3)cc1` [MC415, 2-(4-ethoxyphenyl)-5-methoxy-3,9-dihydrochromeno[2,3-d]imidazoles] had an IC50 of 120 nM. For the same compound, in assay [2], the “Selectivity Index” value was determined as 64.5 and the IC50 is 0.08 µM.

For `COc1ccc(-c2nc3c([nH]2)Cc2cccc(OC)c2O3)c(Br)c1O` [MC416, 2-bromo-6-methoxy-3-(5-methoxy-3,9-dihydrochromeno[2,3-]imidazol-2-yl)phenol], in assay [2], the “Selectivity Index” value is on record as 1.97 and the midpoint of inhibition, the IC50, lay at 1.59 µM.

For `COc1cccc2c1Oc1nc(-c3ccc(Br)cc3)[nH]c1C2C1c2cccc(OC)c2Oc2nc(-c3ccc(Br)cc3)[nH]c21` (centres unmarked) [MC421, 2,2′-bis(4-bromophenyl)-5,5′-dimethoxy-1,1,9,9′-tetrahydro-9,9′-bichromeno[2,3-]imidazoles], the IC50 in assay [1] was found to be 340 nM. Further, in assay [2], the “Selectivity Index” value is on record as 123.50 and the half-inhibitory concentration (IC50) came to 0.02 µM.

The IC50 is the point on the concentration scale where inhibition reaches its midpoint. Higher therefore signals a need for much substance.
